Paper PMC4830539, “Chemical Inhibition of Histone Deacetylases 1 and 2 Induces Fetal Hemoglobin through Activation of GATA2” (PLoS ONE, 2016)

What was measured:
Assay type in all cases: cell-based, human
[1] = test system: HBG mRNA; assay: HBG mRNA in burst forming unit erythroid (BFU-E) colonies; conditions: 14 days
Procedure: Burst forming unit erythroid (BFU-E) assays were performed by ReachBio Research Labs (Seattle, WA). On the day of the experiment, normal human bone marrow mononuclear cells (Lonza) were thawed rapidly, diluted in 10 mL of IMDM containing 10% fetal bovine serum and washed by centrifugation. The supernatant was discarded and the cell pellet resuspended in a known volume of IMDM + 10% FBS. ACY-957 or vehicle was added to a semi-solid methylcellulose-based media formulation containing IL3 (10 ng/mL), CSF2 (10 ng/mL), KITLG (50 ng/mL), and EPO (3 U/mL) and plated in triplicate. BFU-E assays were initiated at 2.5 x 10^4 cells per culture. Following 14–16 days in culture, BFU-E colonies were isolated and RNA purified using the RNeasy Micro Kit (Qiagen).
Globin mRNA was detected using quantitative real time PCR (QPCR). Total RNA was isolated using RNeasy Micro Kit (Qiagen) with on-column DNase digestion, converted into cDNA using the High Capacity RNA-to-cDNA Kit (Life Technologies), diluted 5-fold with water, and 1 μL used as a template for QPCR. The percent of each β-like globin transcript was determined using the absolute standard curve method. Briefly, DNA corresponding to the full length transcript for each globin isoform was cloned into […] plasmid (GenScript, Piscataway NJ). Each plasmid was validated against each QPCR probe to ensure specificity. Plasmids were pooled at equal molar concentration and a dilution series spanning 8-logs was utilized as the standard curve. Throughout this work, ‘HBG mRNA (%)’ and ‘percent HBG mRNA’ refers to the abundance of HBG mRNA expressed relative to the sum of the abundances of all β-like globin transcripts, i.e. [HBG/(HBB+HBD+HBG+HBE)]*100. In cases where the transcript of interest was compared against the housekeeping gene ACTB, the comparative Ct ([…]) method was utilized. […]

[2] = test system: erythroid differentiation of BM cells; assay: Erythroid maturation stage by flow cytometry (TFRC and GYPA); conditions: for cells in TFRC/GYPA gate (gate not named): Fig 5A
Procedure: Flow cytometry was performed on a FC500 flow cytometer ([…]). Fetal hemoglobin protein was assayed using the Fetal Hemoglobin Test Kit (Life Technologies) according to manufacturer’s protocol. Samples were stained with FITC-conjugated mouse IgG1 anti-human HbF antibody (clone HbF-1, Life Technologies). Each sample was also stained with a FITC-conjugated mouse IgG1 isotype control antibody (clone X40, BD Biosciences) and used as a negative control. FETALtrol cells were used as positive controls (Trillium Diagnostics). TFRC and GYPA were detected on fresh cells by staining with 20 μL of PE-conjugated anti-human TFRC (clone M-A712, catalog 555537, BD Biosciences) and 0.5 μL of FITC- or APC-conjugated anti-human GYPA (clone GA-R2 (HIR2), catalog 559943 or 551336, BD Biosciences) in 200 μL PBS with 0.1% BSA for 40 min on ice. Forward and side scatter, or staining with 7AAD (catalog 559925, BD Biosciences), was used to identify viable cells.
To investigate the effects of HDAC1/2 inhibition on erythroid maturation, we followed differentiation by flow cytometry using TFRC and GYPA [38]. BM cells were cultured in CS1 expansion media for 7 days, yielding a pool of TFRC^negGYPA^neg cells composed of primitive and more differentiated hematopoietic progenitors of multiple lineages (Fig 4, ‘day 0’). These cells were then shifted to CS1 differentiation media containing either 1 μM of ACY-957 or vehicle control. […] The majority of vehicle control cells continued to differentiate over the next 3 days, becoming TFRC^posGYPA^pos by day 8. […] TFRC^posGYPA^mid cells are equivalent to proerythroblasts, while TFRC^posGYPA^pos cells include the more differentiated basophilic and polychromatic erythroblasts. Therefore, HDAC1/2 inhibition using 1 μM of ACY-957 was able to inhibit differentiation of proerythroblasts to basophilic erythroblasts in the liquid culture systems utilized in this study.

[3] = test system: GATA2 mRNA; assay: GATA2 mRNA in cells from SCD donors; conditions: 1 μM, 3 days of culture
[4] = CS1 differentiation media, 1 μM

Nc1ccc(-c2cccs2)cc1NC(=O)c1ccc2nc(N3CCNCC3)ccc2c1 [ACY-957]
each β-like globin transcript relative to ACTB [1]: increased HBE and HBG mRNA and decreased HBD and HBB mRNA
percent HBG ([1]; 1 μM): 48%
percent HBG ([1]; 2 μM): 82%
erythroid differentiation by day 8 [2, 4]: accumulated at the TFRC^posGYPA^mid stage
erythroid differentiation during the first 5 days [2, 4]: differentiated to the same extent as vehicle treated cells
cells in TFRC/GYPA gate (gate not named) ([2]; Donor 1, CS1, day 5, 1 μM, first gate listed): 61%
cells in TFRC/GYPA gate (gate not named) ([2]; Donor 1, CS1, day 5, 1 μM, second gate listed): 30%
cells in TFRC/GYPA gate (gate not named) ([2]; Donor 2, CS1, day 5, 1 μM, first gate listed): 62%
cells in TFRC/GYPA gate (gate not named) ([2]; Donor 2, CS1, day 5, 1 μM, second gate listed): 37%
cells in TFRC/GYPA gate (gate not named) ([2]; Donor 3, CS1, day 5, 1 μM, first gate listed): 65%
cells in TFRC/GYPA gate (gate not named) ([2]; Donor 3, CS1, day 5, 1 μM, second gate listed): 32%
GATA2 expression in primary cells derived from SCD patients [3]: elevated GATA2 expression
